This is an account of results in publication PMC7096246 (Journal of pharmaceutical sciences, 2020).

Converted amounts (≈) assume the structure as drawn.

For data set [1] the following is noted: cited from earlier work.
Data set [2] is described as follows: Saturation solubility in 50% FBS/PBS. The data set is classed as physicochemical.
For data set [3] the following is noted: ref DrugBank database, DB01229 and DB08889; cited from earlier work.
Data set [4] is described as follows: Water solubility measured in the current study. It is filed as physicochemical.

In general, solubility refers to how much of the substance goes into solution per volume.

Turning to `CC(=O)O[C@H]1C(=O)[C@@]2(C)[C@H]([C@H](OC(=O)c3ccccc3)[C@]3(O)C[C@H](OC(=O)[C@H](O)[C@@H](NC(=O)c4ccccc4)c4ccccc4)C(C)=C1C3(C)C)[C@]1(OC(C)=O)CO[C@@H]1C[C@@H]2O` [PTX, paclitaxel], the plasma protein binding in data set [1] is listed as 88-98%.
For `CC(C)C[C@H](NC(=O)[C@H](CCc1ccccc1)NC(=O)CN1CCOCC1)C(=O)N[C@@H](Cc1ccccc1)C(=O)N[C@@H](CC(C)C)C(=O)[C@@]1(C)CO1` [CFZ, carfilzomib], the plasma protein binding in data set [1] is 98%. The solubility at 24 h in data set [2] came to 9.3 ± 0.2 µg/mL (≈ 12.9 µM); in data set [4] it was 1.3 ± 0.2 µg/mL (≈ 1.81 µM). In addition, in data set [3], the “water solubility as reported in DrugBank” value is 4.8 µg/mL (≈ 6.67 µM).
